Patent US12240857B2 (priority 2017, dated 2025)
Like-named read-outs stand apart in the source and are kept apart here.

Key:
[1] = tested on: EBOV mucin-domain-deleted glycoprotein pseudotyped VSV; assay: microbe, parasite or virus in culture; format: cell-based, Zaire ebolavirus; settings: Zaire ebolavirus, Vero, read-out: EC50 EBOV
[2] = tested on: BDBV mucin-domain-deleted glycoprotein pseudotyped VSV; assay: microbe, parasite or virus in culture; format: cell-based, Bundibugyo ebolavirus; settings: Vesicular stomatitis virus, Vero, read-out: EC50 BDBV
[3] = in vitro; settings: African green monkey, CC50

Row | Compound | EC50 [1] [nM] | EC50 [2] [nM] | CC50 [3] [nM] | EC50 ([1]; 24 h) [nM] | EC50 ([2]; 24 h) [nM]
1 | CN1CC[C@@H](NC(=O)C23CC4CC(C)(C2)CC(c2ccccc2)(C4)C3)C1 (stereo partly drawn) [Example A41] | 103 | 180 | 13600 | – | –
2 | CC(C)(C)NCC(O)COCCC12CC3CC(CC(C3)C1)C2 (stereo not drawn) [Example D13, {3-[2-(adamantan-1-yl)ethoxy]-2-hydroxypropyl}(tert-butyl)amine] | – | – | > 10000 | 630 | 670
3 | CC12CC3(C)CC(C(=O)NC4CCNCC4)(C1)CC(c1ccccc1)(C2)C3 [Example A73] | 320 | 370 | 13000 | – | –
4 | N[C@H]1CC[C@H](NC(=O)C23CC4CC(C2)CC(C(F)(F)F)(C4)C3)CC1 [Example A94] | 1000 | 880 | 5100 | – | –
5 | O=C(CC1(c2ccccc2)C2CC3CC(C2)CC1C3)NC1CCNCC1 (stereo not drawn) [Example A99] | 690 | 190 | 26700 | – | –
6 | O=C(CC1CCNCC1)NC12CC3CC(C1)CC(c1ccccc1)(C3)C2 [Example E4, N-(3-phenyladamantan-1-yl)-2-(piperidin-4-yl)acetamide] | 1080 | 790 | 23100 | – | –
7 | NC1CCN(C(=O)C23CC4CC(C2)CC(c2ccccc2)(C4)C3)CC1 [Example A61] | 140 | 80 | > 10000 | – | –
8 | Cc1cccc(C23CC4CC(CC(C(=O)N[C@H]5CC[C@H](N)CC5)(C4)C2)C3)c1 [Example A100] | 220 | 180 | 6300 | – | –
9 | Nc1ccc(C23CC4CC(CC(C4)C2)C3)cc1 [Example D36, 4-(adamantan-1-yl)aniline] | – | – | > 10000 | 4200 | 6200
10 | O=C(CNC(=O)C12CC3CC(C1)CC(c1ccccc1)(C3)C2)N1CCC2(CCN(Cc3ccccc3)C2)C1 (stereo not drawn) [Example A2] | 300 | 390 | 8500 | – | –
11 | CCN1CCN(CC(O)COc2ccc(C34CC5CC(CC(C5)C3)C4)cc2)CC1 (stereo not drawn) [Example D25, 1-[4-(adamantan-1-yl)phenoxy]-3-(4-ethylpiperazin-1-yl)propan-2-ol] | – | – | 3100 | 90 | 240
12 | OC(CCOc1ccc(C23CC4CC(CC(C4)C2)C3)cc1)CN1CCCCC1 (stereo not drawn) [Example C8, 4-(4-(adamantan-1-yl)phenoxy)-1-(piperidin-1-yl)butan-2-ol] | 140 | 290 | 1300 | – | –
13 | CC1CCN(C[C@H](O)COc2ccc(C34CC5CC(CC(C5)C3)C4)cc2)CC1 [Example D22, (2S)-1[4-(adamantan-1-yl)phenoxy]-3-(4-methylpiperidin-1-yl)propan-2-ol] | – | – | 8500 | 52 | 85
14 | c1cc(C23CC4CC(CC(C4)C2)C3)ccc1OCCCN1CCCCC1 [Example C5, 1-(3-(4-(adamantan-1-yl)phenoxy)propyl)piperidine] | 140 | 550 | 14300 | – | –
15 | C[C@H]1CN(C(=O)C23CC4CC(C)(C2)CC(c2ccccc2)(C4)C3)CCN1 (stereo partly drawn) [Example A82] | 130 | 160 | 4500 | – | –
16 | O=C(NCC12CC3CC(C1)CC(c1ccccc1)(C3)C2)C1CCNCC1 [Example E6, N-[(3-phenyladamantan-1-yl)methyl]piperidine-4-carboxamide] | 710 | 200 | 11900 | – | –
17 | CC12CC3CC(C(=O)N4CC5(CC(N)C5)C4)(C1)CC(c1ccccc1)(C3)C2 (stereo not drawn) [Example A91] | 120 | 190 | 17400 | – | –
18 | O=C(CC12CC3CC(C1)CC(c1ccccc1)(C3)C2)NC1CCNCC1 [Example A70] | 490 | 190 | > 50000 | – | –

Row | Compound | EC50 [1] [nM] | EC50 [2] [nM] | CC50 [3] [nM] | EC50 ([1]; 24 h) [nM] | EC50 ([2]; 24 h) [nM]
19 | N[C@H]1CC[C@H](NC(=O)C23CC4CC2CC(c2ccccc2)(C4)C3)CC1 (stereo partly drawn) [Example A87] | 140 | 190 | 1400 | – | –
20 | CC12CC3CC(CNC4CCNCC4)(C1)CC(c1ccccc1)(C3)C2 (stereo not drawn) [Example C3, N-((3-methyl-5-phenyladamantan-1-yl)methyl)piperidin-4-amine] | 234 | 210 | 1800 | – | –
21 | CC1CNCCC1NC(=O)C12CC3CC(C)(C1)CC(c1ccccc1)(C3)C2 (stereo not drawn) [Example A112] | 37 | 260 | 7200 | – | –
22 | CC12CC3CC(C(=O)N[C@H]4CC[C@@H](N)CC4)(C1)CC(c1ccccc1)(C3)C2 (stereo partly drawn) [Example A77] | 120 | 220 | 8700 | – | –
23 | O=C(CC12CC3CC(CC(C3)C1)C2)NC1CCN(Cc2ccccc2)CC1 [Example A51] | 9000 | > 10000 | 10000 | – | –
24 | CN1CCN(CC(O)CCOc2ccc(C34CC5CC(CC(C5)C3)C4)cc2)CC1 (stereo not drawn) [Example C9, 4-(4-(adamantan-1-yl)phenoxy)-1-(4-methylpiperazin-1-yl)butan-2-ol] | 660 | 990 | 8300 | – | –
25 | CC12CC3CC(C(=O)N4C5CCC4CC(N)C5)(C1)CC(c1ccccc1)(C3)C2 (stereo not drawn) [Example A93] | 210 | 360 | 12200 | – | –
26 | CC12CC3CC(C(=O)N[C@@H]4CN5CCC4CC5)(C1)CC(c1ccccc1)(C3)C2 (stereo partly drawn) [Example A44] | 90 | 190 | 11000 | – | –
27 | O=C(NC1CCNCC1)C12CC3CC(C1)CC(c1ccc(O)cc1)(C3)C2 [Example A74] | 1720 | > 1000 | 14000 | – | –
28 | CC1CCN(C[C@H](O)COc2ccc(C34CC5CC(CC(c6ccccc6)(C5)C3)C4)cc2)CC1 [Example C18, (2S)-1-(4-methylpiperidin-1-yl)-3-[4-(3-phenyladamantan-1-yl)phenoxy]propan-2-ol] | 80 | 260 | 2700 | – | –
29 | O=C(N1CCCNCC1)C12CC3CC(C1)CC(c1ccccc1)(C3)C2 [Example A66] | 160 | 100 | > 10000 | – | –
30 | CN1CCN(CC23CC4CC(C2)CC(c2ccccc2)(C4)C3)CC1 [Example C1] | 180 | 206 | 5800 | – | –
31 | O=C(N[C@@H]1CCCN(Cc2ccccc2)C1)C12CC3CC(C1)CC(c1ccccc1)(C3)C2 [Example A34] | 170 | 220 | 1100 | – | –
32 | CC1CCN(C[C@H](O)COc2ccc(C34CC5CC(C)(CC(C)(C5)C3)C4)cc2)CC1 [Example D40, (2S)-1-[4-(3,5-dimethyladamantan-1-yl)phenoxy]-3-(4-methylpiperidin-1-yl)propan-2-ol] | – | – | 2500 | 190 | 460
33 | O=C(N1CC2CC1CN2)C12CC3CC(C1)CC(c1ccccc1)(C3)C2 (stereo not drawn) [Example A65] | 90 | 90 | > 10000 | – | –
34 | CC12CC3CC(C(=O)NC4CC5(CNC5)C4)(C1)CC(c1ccccc1)(C3)C2 (stereo not drawn) [Example A89] | 250 | 880 | 40700 | – | –
35 | C[C@H]1C[C@H](NC(=O)C23CC4CC(C)(C2)CC(c2ccccc2)(C4)C3)CCN1 (stereo partly drawn) [Example A107] | 46 | 300 | 14700 | – | –
